Data from ChEMBL document CHEMBL1147449, “Synthesis of analogues of a potent antitumor saponin OSW-1” (Bioorg Med Chem Lett, 2004).

Key:
Details in all cases: Homo sapiens
Ishikawa [1] = test: Inhibition of the necrosis induced by compound in endometrial cancer ishikawa cell line after 24 hr; assay type: functional, cell-based
Ishikawa [2] = test: Cytotoxicity (growth inhibition) against endometrial cancer ishikawa cell line at 10E-5 mol/L after 24 hr; assay type: functional
Ishikawa [3] = test: Cytotoxicity (growth inhibition) against endometrial cancer ishikawa cell line at 10E-6 mol/L after 24 hr; assay type: functional
Ishikawa [4] = test: Cytotoxicity (growth inhibition) against endometrial cancer ishikawa cell line at 10E-7 mol/L after 24 hr; assay type: functional
Ishikawa [5] = test: Cytotoxicity (growth inhibition) against endometrial cancer ishikawa cell line at 10E-8 mol/L after 24 hr; assay type: functional
Ishikawa [6] = test: Cytotoxicity (growth inhibition) against endometrial cancer ishikawa cell line at 10E-9 mol/L after 24 hr; assay type: functional
MCF7 [7] = test: Cytotoxicity (growth inhibition) against breast cancer MCF-7 cell line at 10E-6 mol/L; assay type: functional
MCF7 [8] = test: Cytotoxicity (growth inhibition) against breast cancer MCF-7 cell line at 10E-7 mol/L; assay type: functional
MCF7 [9] = test: Cytotoxicity (growth inhibition) against breast cancer MCF-7 cell line at 10E-8 mol/L; assay type: functional
MCF7 [10] = test: Cytotoxicity (growth inhibition) against breast cancer MCF-7 cell line at 10E-9 mol/L; assay type: functional
MCF7 [11] = test: Inhibition of the necrosis induced by compound in breast cancer MCF-7 cell line; assay type: functional, cell-based
MDA-MB-231 [12] = test: Inhibition of the necrosis induced by compound in breast cancer MDAMB-231 cell line; assay type: functional, cell-based
MDA-MB-231 [13] = test: Cytotoxicity (growth inhibition) against breast cancer MDAMB-231 cell line at 10E-5 mol/L; assay type: functional
MDA-MB-231 [14] = test: Cytotoxicity (growth inhibition) against breast cancer MDAMB-231 cell line at 10E-6 mol/L; assay type: functional
MDA-MB-231 [15] = test: Cytotoxicity (growth inhibition) against breast cancer MDAMB-231 cell line at 10E-7 mol/L; assay type: functional
MDA-MB-231 [16] = test: Cytotoxicity (growth inhibition) against breast cancer MDAMB-231 cell line at 10E-8 mol/L; assay type: functional
MDA-MB-231 [17] = test: Cytotoxicity (growth inhibition) against breast cancer MDAMB-231 cell line at 10E-9 mol/L; assay type: functional
MCF7 [18] = test: Cytotoxicity (growth inhibition) against breast cancer MCF-7 cell line at 10E-5 mol/L; assay type: functional

## COc1ccc(C(=O)O[C@H]2[C@H](O[C@@H]3[C@@H](OC(C)=O)[C@H](O[C@H]4C[C@H]5[C@@H]6CC=C7C[C@@H](O)CC[C@]7(C)[C@H]6CC[C@]5(C)[C@@]4(O)[C@H](C)C(=O)CCC(C)C)OC[C@@H]3O)OC[C@@H](O)[C@@H]2O)cc1
Ishikawa [1]
  IC50: 3000 nM
Ishikawa [2]
  inhibition at 10 µM: 100%
Ishikawa [3]
  inhibition at 1 µM: 100%
Ishikawa [4]
  inhibition at 0.1 µM: 100%
Ishikawa [5]
  inhibition at 0.01 µM: 100%
Ishikawa [6]
  inhibition at 0.001 µM: 95%
MCF7 [7]
  inhibition at 1 µM: 100%
MCF7 [8]
  inhibition at 0.1 µM: 100%
MCF7 [9]
  inhibition at 0.01 µM: 100%
MCF7 [10]
  inhibition at 0.001 µM: 87%
MCF7 [11]
  IC50: 7000 nM
MDA-MB-231 [12]
  IC50: 500 nM
MDA-MB-231 [13]
  inhibition at 10 µM: 100%
MDA-MB-231 [14]
  inhibition at 1 µM: 100%
MDA-MB-231 [15]
  inhibition at 0.1 µM: 100%
MDA-MB-231 [16]
  inhibition at 0.01 µM: 100%
MDA-MB-231 [17]
  inhibition at 0.001 µM: 100%
MCF7 [18]
  inhibition at 10 µM: 100%
